From patent EP4772634A1, “DOUBLE-STRANDED RNA TARGETING COAGULATION FACTOR XI” (Chia Tai Tianqing Pharmaceutical Group Co., Ltd., priority 2023, dated 2025)

Assays:
[1] = system: human coagulation factor XI protein; assay: In vivo activity in human coagulation factor XI model mice (Experimental Example 3), plasma FXI protein by ELISA; settings: humanized mice
Protocol: The humanized mice used in this experimental example were purchased from Cyagen Biosciences Co., Ltd. The humanized mice were randomly divided into groups, with 4 mice per group. The compound and PBS control (pH = 7.2) were administered to each group of mice, respectively. The day of the first administration was designated as day 0 of the experiment. The corresponding compound solutions were administered via a single subcutaneous injection based on animal body weight, at administration doses of 1 mg/kg and 5 mg/kg. PBS control mice were each administered PBS, with an administration volume of 10 mL/kg body weight. Orbital blood was collected before administration and on day 7, day 14, day 28, day 42, and day 63 after administration. Plasma was separated, and the content of the coagulation factor XI protein in the plasma was measured at each time point.
About 165 µL of blood was collected from the orbital veins for plasma collection. A 3.8% trisodium citrate anticoagulant was added to the whole blood in a volume ratio of 1:9 (anticoagulant:[…], v/v), and the mixture was centrifuged at 3000 rpm at 20 °C for 15 min to collect plasma. The content of the coagulation factor XI protein in the plasma obtained from the above groups of mice (test groups administered the compound and PBS control group) was measured using a Human Coagulation Factor XI ELISA kit (Sigma, Cat. No. RAB1385-1KT).
(§1) The coagulation factor XI protein inhibition rate was calculated according to the following equation: [formula]
Table 11 lists the measurement of FXI protein content in animal plasma before and on day 7, day 14, day 28, day 42, and day 63 after a single subcutaneous administration of siRNA ligand conjugates (TD01M01L01, TD02M01L01) at doses of 1 mg/kg and 5 mg/kg to humanized homozygous mice. […] Table 11. In vivo experimental design

[2] = system: human coagulation factor XI protein; assay: In vivo activity in human coagulation factor XI model mice (Experimental Example 4), FXI protein by ELISA; settings: female humanized homozygous mice, single subcutaneous 3 mg/kg
Protocol: The humanized mice used in this experimental example were purchased from Cyagen Biosciences Co., Ltd. The female humanized homozygous mice were randomly divided into groups, with 4 mice per group. The compound and PBS control (pH = 7.2) were administered to each group of mice, respectively. The day of the first administration was designated as day 0 of the experiment. The corresponding compound solutions were administered via a single subcutaneous injection based on animal body weight, at an administration dose of 3 mg/kg. PBS control mice were each administered PBS, with an administration volume of 10 mL/kg body weight. Orbital blood was collected before administration and on day 3, day 7, day 14, day 21, day 28, day 42, day 56, and day 70 after administration. Serum was separated, and the content of the coagulation factor XI protein in the serum at each time point was measured using a Human Coagulation Factor XI ELISA kit (Thermo, Batch No. 2350072722, Cat. No. EH118RB).
as §1
Table 13 lists the measurement of coagulation factor XI protein content in animal plasma before and on day 3, day 7, day 14, day 21, day 28, day 42, day 56, and day 70 after a single subcutaneous administration of siRNA ligand conjugates at a dose of 3 mg/kg to humanized homozygous mice. […] Table 13. In vivo experimental design

[3] = system: human coagulation factor XI protein; assay: In vivo activity in AAV-FXI model mice, serum FXI protein by ELISA; settings: AAV-FXI mice (C57BL/6 male), single subcutaneous 3 mg/kg
Protocol: 4-6 week old C57BL/6 male mice were injected via the tail vein with 1 × 10^11 vg of AAV8-FXI (WZ Biosciences). On day 28 after modeling, mice with an hFXI protein content of greater than 100 ng/mL were selected. The mice were randomly divided into groups based on body weight and were injected with 3 mg/kg of the dsRNA ligand conjugate of the present application (amount calculated based on siRNA only) on day 0. Orbital blood was collected on day 7, day 14, day 35, and day 56. Serum was separated, and the content of the coagulation factor XI protein in the serum at each time point was measured using a Human Coagulation Factor XI ELISA kit (Thermo, Cat. No. EH118RB).
as §1
The content of the coagulation factor XI protein in animal serum was measured before and on day 7, day 14, day 35, and day 56 after a single subcutaneous administration of the dsRNA ligand conjugate of the present application at a dose of 3 mg/kg to AAV-FXI mice (see Table 15). […] Table 15. In vivo experimental design

[4] = single subcutaneous 1 mg/kg, D7
[5] = single subcutaneous 1 mg/kg, D14
[6] = single subcutaneous 1 mg/kg, D28
[7] = single subcutaneous 1 mg/kg, D42
[8] = single subcutaneous 1 mg/kg, D63
[9] = single subcutaneous 5 mg/kg, D7
[10] = single subcutaneous 5 mg/kg, D14
[11] = single subcutaneous 5 mg/kg, D28
[12] = single subcutaneous 5 mg/kg, D42
[13] = single subcutaneous 5 mg/kg, D63

TD01M01L01: siRNA ligand conjugate: TD01M01 with L01 (GalNAc) ligand at 3' end of sense strand SEQ ID NO 29; antisense SEQ ID NO 30 (sense GATCTCCAACTAAAATACT; antisense AGTATTTTAGTTGGAGATCCG; GalNAc L01 ligand at sense 3' end, 2'-OMe/2'-F, pattern not given here)
Relative inhibition rate (%) of FXI protein [1, 4]: 58.1%
Relative inhibition rate (%) of FXI protein [1, 5]: 67.5%
Relative inhibition rate (%) of FXI protein [1, 6]: 58.6%
Relative inhibition rate (%) of FXI protein [1, 7]: 68.8%
Relative inhibition rate (%) of FXI protein [1, 8]: 41.3%
Relative inhibition rate (%) of FXI protein [1, 9]: 90.5%
Relative inhibition rate (%) of FXI protein [1, 10]: 92.8%
Relative inhibition rate (%) of FXI protein [1, 11]: 89.5%
Relative inhibition rate (%) of FXI protein [1, 12]: 91.8%
Relative inhibition rate (%) of FXI protein [1, 13]: 74.4%

TD01M02L01: siRNA ligand conjugate: TD01M02 with L01 (GalNAc) ligand at 3' end of sense strand SEQ ID NO 31; antisense SEQ ID NO 32 (sense GATCTCCAACTAAAATACT; antisense AGTATTTTAGTTGGAGATCCG; GalNAc L01 ligand at sense 3' end, 2'-OMe/2'-F, pattern not given here)
Relative inhibition rate (%) of FXI protein [1, 4]: 65.1%
Relative inhibition rate (%) of FXI protein [1, 5]: 67.4%
Relative inhibition rate (%) of FXI protein [1, 6]: 62.5%
Relative inhibition rate (%) of FXI protein [1, 7]: 69.3%
Relative inhibition rate (%) of FXI protein [1, 8]: 44.6%
Relative inhibition rate (%) of FXI protein [1, 9]: 90.9%
Relative inhibition rate (%) of FXI protein [1, 10]: 93.1%
Relative inhibition rate (%) of FXI protein [1, 11]: 92.4%
Relative inhibition rate (%) of FXI protein [1, 12]: 93.1%
Relative inhibition rate (%) of FXI protein [1, 13]: 76.6%
Relative inhibition rate (%) of FXI protein ([2]; D3): 69.3%
Relative inhibition rate (%) of FXI protein ([2]; D7): 88.5%
Relative inhibition rate (%) of FXI protein ([2]; D14): 91.8%
Relative inhibition rate (%) of FXI protein ([2]; D21): 91.7%
Relative inhibition rate (%) of FXI protein ([2]; D28): 91.3%
Relative inhibition rate (%) of FXI protein ([2]; D42): 86.1%
Relative inhibition rate (%) of FXI protein ([2]; D56): 76.1%
Relative inhibition rate (%) of FXI protein ([2]; D70): 68.9%

TD02M01L01: siRNA ligand conjugate: TD02M01 with L01 (GalNAc) ligand at 3' end of sense strand SEQ ID NO 33; antisense SEQ ID NO 34 (sense GGATGATTTTCTTATATCA; antisense TGATATAAGAAAATCATCCTG; GalNAc L01 ligand at sense 3' end, 2'-OMe/2'-F, pattern not given here)
Relative inhibition rate (%) of FXI protein [1, 4]: 61.5%
Relative inhibition rate (%) of FXI protein [1, 5]: 63.9%
Relative inhibition rate (%) of FXI protein [1, 6]: 49.2%
Relative inhibition rate (%) of FXI protein [1, 7]: 52.9%
Relative inhibition rate (%) of FXI protein [1, 8]: 41.1%
Relative inhibition rate (%) of FXI protein [1, 9]: 91.8%
Relative inhibition rate (%) of FXI protein [1, 10]: 94.0%
Relative inhibition rate (%) of FXI protein [1, 11]: 87.8%
Relative inhibition rate (%) of FXI protein [1, 12]: 89.4%
Relative inhibition rate (%) of FXI protein [1, 13]: 69.0%

TD05M02L01: dsRNA ligand conjugate: TD05M02 with L01 (GalNAc) ligand at 3' end of sense strand SEQ ID NO 47; antisense SEQ ID NO 48 (sense CTTTTCAGGATGATTTTCT; antisense AGAAAATCATCCTGAAAAGAC; GalNAc L01 ligand at sense 3' end, 2'-OMe/2'-F, pattern not given here)
Relative inhibition rate (%) of FXI protein ([3]; D7): 96.3%
Relative inhibition rate (%) of FXI protein ([3]; D14): 96.6%
Relative inhibition rate (%) of FXI protein ([3]; D35): 81.7%
Relative inhibition rate (%) of FXI protein ([3]; D56): 51.0%

TD12M02L01: dsRNA ligand conjugate: TD12M02 with L01 (GalNAc) ligand at 3' end of sense strand SEQ ID NO 75; antisense SEQ ID NO 76 (sense TGATTTTCTTATATCAAGT; antisense ACTTGATATAAGAAAATCATC; GalNAc L01 ligand at sense 3' end, 2'-OMe/2'-F, pattern not given here)
Relative inhibition rate (%) of FXI protein ([3]; D7): 88.4%
Relative inhibition rate (%) of FXI protein ([3]; D14): 88.0%
